Reference: US20150141386A1, “USE OF VITAMIN K TO DECREASE ALLOGRAFT FAILURE AND PATIENT MORTALITY AFTER ORGAN TRANSPLANTATION” (VITAK B.V., priority 2012, published 2015)

How the values were obtained:
Matrix Gla-Protein (MGP) = assay: Circulating desphospho-uncarboxylated MGP (dp-ucMGP) / MGP carboxylation in vitamin K intervention studies; type: in vivo, human; conditions: for circulating dp-ucMGP at start: baseline
Description: (§1) Blood was drawn after an 8-12 h overnight fasting period to prepare serum and citrated plasma, which were subsampled and frozen at −80° C. until use. Renal allograft function was assessed as the 24 h urinary creatinine clearance (CrCl), i.e. the 24 h urinary creatinine excretion divided by the serum creatinine concentration. Vitamin K status was assessed from plasma dp-ucMGP concentrations as described elsewhere {Cranenburg EC et al. Thromb. Haemostas. 104 (2010) 811-822} and from ucOC using a commercial dual antibody ELISA test kit (Takara Shuzo Co. Ltd., Otsu, Shiga, Japan). An in-house control serum pool was run on all ELISA plates. The primary end-points of this study were death-censored graft failure and change in kidney function. Death-censored graft failure was defined as return to dialysis therapy or re-transplant. Change in kidney function was defined as estimated GFR (eGFR) at baseline subtracted by eGFR at the last follow-up visit, divided by time from baseline to follow-up and expressed in millilitres per minute per 1.73 m^2 per year. […] Calculating a slope instead of a change in eGFR therefore will underestimate a patient's true kidney function decrease. For patients who died with a functioning graft (n=78), eGFR at follow-up was defined as kidney function at the last visit to the outpatient clinic before death, and for patients with graft failure (n=42), eGFR at follow-up was defined as the eGFR at the last visit to the outpatient clinic before starting dialysis therapy or re-transplant. There was no loss to follow-up.
(§2) Recommended doses of vitamin K for treating transplant patients. […] On top of this, chronic kidney disease (CKD) patients are known to have much more pronounced vitamin K insufficiency than healthy subjects {Schlieper G et al. J. Am. Soc. Nephrol., 22 (2011) 387-395}. Therefore, the estimated range for optimal effect is dependent on the disease state and may be higher than estimated from literature data. […] This was shown in archived samples from a vitamin K1-intervention study initially described in 2003 {Braam L A et al. Am. J. Sports Med. 31 (2003) 889-895}. […] This was shown in archived samples from a vitamin K1-intervention study initially described in 2003 {Braam L A et al. Calcif. Tissue Int. 73 (2003) 21-26}. During the first 6 months of the study, circulating ucOC in the vitamin K-treated group decreased from 4.2 ng/mL to 0.8 ng/mL, whereas in the control samples a non-significant increase was observed from 4.4 ng/mL to 4.7 ng/mL. […] 109 (2007) 3279-3283}.
(§3) the optimal dose for Gla-protein carboxylation in subjects free from CKD lies between 5 and 2,000 μg/day, preferably between 50 and 1,000 μg/day, more preferably between 100 and 1,000 μg/day and most preferably between 200 and 500 μg/day for subjects with baseline levels in the normal range. […] The decreases of circulating dp-ucMGP and ucOC are shown in FIG. 10. • Lower doses were tested in a number of small studies with a significant effect at 200 μg/day and a half-maximum effect at 500 μg/day.

osteocalcin (OC) [1] = assay: Circulating uncarboxylated osteocalcin (ucOC) / OC carboxylation in vitamin K intervention studies; type: in vivo, human
Description: as §1
as §2, with “3279-3283}. […]” for “3279-3283}.”

circulating OC and MGP = assay: Gla-protein carboxylation (circulating OC and MGP) after vitamin K supplementation; type: in vivo, human
Text: as §2, §3
the optimal dose for Gla-protein carboxylation in subjects free from kidney disease lies between 5 and 3,000 μg/day, preferably between 50 and 2,000 μg/day, more preferably between 100 and 1,000 μg/day and most preferably between 200 and 500 μg/day for subjects with baseline levels in the normal range. […] Treatment should be guided by the circulating levels of dp-ucMGP, ucOC, or uncarboxylated species of any other suitable Gla-protein. • MK-n: The long-chain menaquinones are selected from the group menaquinone-7, menaquinone-8, menaquinone-9, and menaquinone-10. The long half-life times of the long-chain menaquinones make that the optimal dose for Gla-protein carboxylation is lower than for vitamin K1 {Schurgers L J et al. Biochim. Biophys. Acta 1570 (2002) 27-32}. […] A clear dose-dependent increase of MGP carboxylation was found, for instance, between 45 μg/day and 360 μg/day {Westenfeld R et al. Am. J. Kidney Dis. 59 (2012) 186-195}.

osteocalcin (OC) [2] = conditions: cited from earlier work
[3] = in vivo; cited from earlier work

Structure (SMILES) | circulating dp-ucMGP after treatment (Matrix Gla-Protein (MGP); K1 1,000 μg/day (FIG. 8)) [pM] | circulating dp-ucMGP at start (Matrix Gla-Protein (MGP); K1 1,000 μg/day group) [pM] | circulating dp-ucMGP after treatment (Matrix Gla-Protein (MGP); K1 10,000 μg/day (FIG. 7)) [pM] | circulating dp-ucMGP at start (Matrix Gla-Protein (MGP); K1 10,000 μg/day group) [pM] | circulating ucOC at start (osteocalcin (OC) [1]; K1 1,000 μg/day group, baseline) [ng/mL] | circulating ucOC after treatment (osteocalcin (OC) [1]; K1 1,000 μg/day, first 6 months of the study) [ng/mL] | circulating ucOC level at start (osteocalcin (OC) [1]; K1 10,000 μg/day group, baseline of 2-year study) [ng/mL] | circulating ucOC level after treatment (osteocalcin (OC) [1]; K1 10,000 μg/day, first 6 months of 2-year study, background = buffer values) | OC and MGP carboxylation (circulating OC and MGP; K1 1,000 μg/day, healthy volunteers) | carboxylation of circulating OC and MGP (circulating OC and MGP; K1 10,000 μg/day, archived samples of vitamin K1-intervention study) | effect on the carboxylation degree of circulating OC (osteocalcin (OC) [2]; K1 140 μg/day) | circulating half-life time [3] | circulating dp-ucMGP change (Matrix Gla-Protein (MGP); MK-4 45,000 μg/day (FIG. 9)) | dose with half-maximum effect on Gla-protein carboxylation (circulating OC and MGP; lower doses, small studies) [µg/day] | dose with significant effect on Gla-protein carboxylation (circulating OC and MGP; lower doses, small studies) [µg/day] | carboxylation of circulating OC (osteocalcin (OC) [2]; MK-4 45,000 μg/day taken for 6 months)
CC1=C(C/C=C(\C)CCC[C@H](C)CCC[C@H](C)CCCC(C)C)C(=O)c2ccccc2C1=O [K1, phylloquinone] | 112 | 389 | 23 | 182 | 4.2 | 0.8 | 4.6 | not different from background | substantial increase | more than 95% | less pronounced but statistically significant effect | around 1.5 h | – | – | – | –
CC(C)=CCC/C(C)=C/CC/C(C)=C/CC/C(C)=C/CC1=C(C)C(=O)c2ccccc2C1=O [MK-4, menaquinone-4] | – | – | – | – | – | – | – | – | – | – | – | 1 h | decrease | 500 | 200 | complete carboxylation
